Measurements published in US20250144050A1, “AMINOTHIOL-CONJUGATES, COMPOSITIONS, AND METHODS OF USE THEREOF” (THE BURLINGTON HC RESEARCH GROUP, INC., priority 2021, published 2025).
Like-named read-outs stand apart in the source and are kept apart here.

What was measured:
C3H/10T1/2 cells = conditions: 1 milliM; before, during, and after radiation exposure; cited from earlier work
[1] = mice, cited from earlier work
[2] = injection at 500-910 mg/m^2; cited from earlier work
[3] = some in vitro studies; cited from earlier work
[4] = cited from earlier work
mouse splenocytes = conditions: cited from earlier work
angiostatin = conditions: cited from earlier work
[5] = Children; cited from earlier work
Sa-NH sarcoma cells = conditions: 50 mg/kg every other day for 6 days; delayed from 12 days; cited from earlier work
human cancer cell lines = experiment: CyQUANT cell viability assay, 48-hour exposure, panel averages; conditions: for GI50: Homo sapiens, 48 h
Procedure: After drug treatments, fluorescence readings from 96-well plates were obtained using the CyQUANT dye and compared to standard curves for each cell line to determine cell viability. […] Trypan blue exclusion was used to estimate cell numbers in a few pilot experiments and was thereafter applied to confirm cell death.
A series of experiments was conducted to assess the relative efficacy of 4SP65, 1LP65, and amifostine as single agents in the same human cancer cell lines. First, the effectiveness of 4SP65 was tested against 15 cancer cell lines derived from seven tissues. […] The effectiveness of 0 to ≤500 μM amifostine was tested in sets of cancer cell lines reported to have either medium, high, or no expression of alkaline phosphatase.
Trans. R Soc. Lond. […] Using cell numbers based on fluorescence measurements and standard curves [time zero, (Tz), control growth, (C), and test growth in the presence of drug at five or more concentration levels (Ti)], the percentage growth was calculated at each drug concentration level. The percentage of growth inhibition was calculated as follows:
The LC50/99 was calculated using Equation 2=−50 and Eq. 2=−99, respectively. […] For NHMECs, the relationships between drug exposure levels and fluorescence units were used to define dose-response metrics. The selectivity index (SI) values for individual drug treatments were calculated as IC50 levels in NHMECs divided by the IC50 values in cancer cell lines.

[6] = 400 mg/kg; 206 cGy gamma rays; female mice; cited from earlier work
radiation-induced tumors = conditions: WR2721 plus radiation (87% with radiation alone); cited from earlier work
NCI-H460 NSCLC cells = assay type: cell-based; conditions: NCI-H460; each drug alone; 48 h
Procedure: (§1) Trypan Blue exclusion was applied as a complementary confirmation probe for cell death.
(§2) Statistical comparisons of differences in individual dose-response metrics between individual/paired drug treatments and various cell lines were conducted using the Student's t-test, with P-values <0.05 considered significant.
(§3) Relative cell growth inhibition values for differing levels each drug alone and in combination were input into SynergyFinder to generated dose-response curves for each drug alone, to produce a dose-response matrix, to visualize the distribution of areas of differing degrees of synergism in a 2-dimension heatmap and 3-dimension volcano plot, and to calculate average and maximum synergy scores in selected human cancer cell lines. […] Synergy scores <10 means that the interaction between two drugs was likely to be antagonistic; scores from −10 to 10 means the interaction between two drugs was likely to be additive; and scores >10 means the interaction between two drugs was likely to be synergistic.

[7] = test system: PPM-Mill malignant mesothelioma cells; assay type: cell-based; conditions: PPM-Mill; each drug alone; 48 h
Procedure: as §1, §2, §3

[8] = test system: TOV21G ovarian cancer cells; assay type: cell-based; conditions: TOV21G, 48 h
Procedure: as §1, §2, §3

MDA-MB-231 cells = conditions: cited from earlier work
[9] = test system: SKOV3 ovarian cancer cells; assay type: cell-based
Procedure: as §1, §2, §3

[10] = test system: HMESO-1 malignant mesothelioma cells; assay type: cell-based; conditions: HMESO-1; each drug alone; 48 h
Procedure: as §1, §2, §3

metastatic melanoma = conditions: patients with advanced malignant melanoma; cited from earlier work
[11] = cited from earlier work; remark: listed apart in the source
H1975 cells = conditions: H1975, each drug alone, 48 h
Procedure: as §1, §2, §3

PC3 cells = conditions: cited from earlier work
[12] = each drug alone, 48 h, cisplatin series
[13] = each drug alone, 48 h, gefitinib series

Procedure for A549 NSCLC cells: as §1, §2, §3

## NCCCNCCS [WR1065, 2-(3-aminopropyl)aminoethanethiol]
C3H/10T1/2 cells
  protection factor: 3.23
[1]; i.p.
  maximally tolerated dose (MTD): 432 mg/kg BW
[1]; p.o.
  maximally tolerated dose (MTD): 720 mg/kg BW
[2]
  peak plasma level: ~100 µM
  plasma T1/2: ~0.167 h
[3]
  lowest efficacious concentration: 0.4 µM

## CNCCCNCCCS [WR151326]
C3H/10T1/2 cells
  protection factor: 1.8

## NCCCNCCSP(=O)(O)O [amifostine]
[4]; kidney (in vivo)
  level with no observable cytotoxicity: > 17,000 picomol/10 (6) cells
[4]; liver (in vivo)
  level with no observable cytotoxicity: > 7400 picomol/10 (6) cells
[4]; small intestine (in vivo)
  level with no observable cytotoxicity: > 3000 picomol/10 (6) cells
Mouse splenocytes
  reduction of cyclophosphamide-induced HPRT mutations: 8 fold
angiostatin; 200 mg/ml (instead of 50 mg/ml)
  change of angiostatin levels: did not change angiostatin levels
angiostatin; mouse, in vivo
  increase of serum angiostatin levels: 4 fold
[5]
  single dose with no untoward effects: up to 2700 mg/m2
Sa-NH sarcoma cells
  days for tumors to reach ideal size for amputation: 13 days
Human cancer cell lines; read-out: GI50, range, four of 14 cell lines with moderate/high alkaline phosphatase expression, 48 hours
  GI50: 47 to 81 µM
Human cancer cell lines; read-out: GI50, range, seven of 14 cell lines, 48 hours
  GI50: 113 to 378 µM
Human cancer cell lines; read-out: exposure failing to induce growth inhibitory effects (GI50), three of 14 cell lines, 48 hours
  GI50: > 500 µM
Human cancer cell lines; any of 14 cell lines, 48 hours
  exposure without cytolytic effects (LC50/LC99): > 500 µM
Human cancer cell lines; only HCC38 and PC3
  concentration inducing TGI level effects: > 100 µM
[6]
  extension of total life expectancy: 65 days
radiation-induced tumors
  mice developing tumors: 26%

## N.N.[Cl][Pt][Cl] [cisplatin, reference compound]
NCI-H460 NSCLC cells
  GI50: 3.1 ± 0.1 µM
  IC50: 4 ± 0.1 µM
  LC99: ND (>15) μM
  TGI: ND (>15) μM
[7]
  GI50: 27.2 ± 3.4 µM
  IC50: 40.5 ± 8.1 µM
  LC99: ND (>100) μM
  TGI: ND (>100) μM
[8]; 4SP65-cisplatin combined
  LC99, amount of each drug in combination: 5.9 µM
[8]; each drug alone
  GI50: 2.2 ± 0.4 µM
  IC50: 3 ± 0.3 µM
  LC99: 17.2 µM
  TGI: 6.7 ± 0.3 µM
[8]; each drug alone, listed as DDP
  LC99: 17.2 ± 5.2 µM
MDA-MB-231 cells
  GI50: 22.4 µM
A549 NSCLC cells; 6 μM cisplatin alone
  reduction in starting cell numbers: 56%
A549 NSCLC cells; 4SP65-cisplatin combined, 48 h
  LC99, amount of each drug in combination: 7 µM
A549 NSCLC cells; [12]
  GI50: 3.5 ± 0.7 µM
  IC50: 4.7 ± 0.8 µM
  LC99: 24.4 ± 2.6 µM
  TGI: 8.2 ± 1.0 µM
[9]; SKOV3, each drug alone, 48 h
  GI50: 5.3 ± 0.4 µM
  IC50: 6.7 ± 0.6 µM
  LC99: ND (>21) μM
  TGI: ND (>21) μM
[10]
  GI50: 3 ± 0.4 µM
  IC50: 8.6 ± 1.1 µM
  LC99: ND (>15) μM
  TGI: 6.7 ± 0.7 µM
Metastatic melanoma
  partial response: 10%

## COc1cc2ncnc(Nc3ccc(F)c(Cl)c3)c2cc1OCCCN1CCOCC1 [gefitinib, reference compound]
A549 NSCLC cells; [13]
  LC99: ND (>25) μM
  TGI: > 25 µM
A549 NSCLC cells; each drug alone, 48 h, gefitinib series, listed as GEF
  TGI: ND (>25) μM
[11]; 250 mg daily, cancer patients, read-out: Cmax plasma concentrations
  Cmax: 500 to 1000 nM
[11]; after 3 days of treatment
  trough levels: 0.257 to 4.50 µM
[11]; after 8 days of treatment
  trough levels: 0.282 to 6.55 µM
[11]; in vivo
  elimination half-life: 48 h
H1975 cells
  LC99: ND (>25) μM
  TGI: > 25 µM
H1975 cells; listed as GEF
  TGI: ND (>25) μM

## CC(=O)O[C@H]1C(=O)[C@@]2(C)[C@H]([C@H](OC(=O)c3ccccc3)[C@]3(O)C[C@H](OC(=O)[C@H](O)[C@@H](NC(=O)c4ccccc4)c4ccccc4)C(C)=C1C3(C)C)[C@]1(OC(C)=O)CO[C@@H]1C[C@@H]2O [paclitaxel, reference compound]
[9]; SKOV3 cells
  fold lower dose than 1LP65 at the GI50 level: 77 fold
PC3 cells
  GI50: 36.4 µM
